{"source": "patent US20210145964A1", "about": "“STROMA-TARGETING TREATMENT FOR PATIENTS WITH ELEVATED ADAM12 LEVELS” (Academisch Medisch Centrum, priority 2019, published 2021)", "tested_on": "metastatic adenocarcinoma of the pancreas", "experiment": "MPACT phase III trial, overall survival by plasma ADAM12 group", "details": "poorest-outcome group: ADAM12 became detectable or increased at cycle 2", "description": "In the MPACT trial cohort, collection of plasma samples for biomarker development was optional and separate written consent was obtained for sample collection and biomarker analysis. […] All patients provided informed consent. […] Patients were randomized 1:1 (stratified by performance status, presence of liver metastases, and region) to receive nab-paclitaxel 125 mg/m^2 plus gemcitabine 1,000 mg/m^2 on days 1, 8, and 15 every 28 days or gemcitabine alone 1,000 mg/m^2 on days 1, 8, 15, 22, 29, 36, and 43 in 56 days (cycle 1) and then on days 1, 8, and 15 every 28 days (cycle≥2). Treatment continued until disease progression or unacceptable toxicity.\nMPACT trial blood samples were collected in EDTA tubes to chelate calcium and prevent blood clotting, and storage at −80° C. until analysis. To allow the analysis of these plasma samples using the ADAM12 DuoSet ELISA, recalcification was required. […]\nFor the MPACT cohort, baseline ADAM12 values were categorized into undetectable (0) and detectable (>0). The fold change of ADAM12 at cycle 2, day 1 (C2D1) from baseline (cycle 1, day 1; C1D1) was calculated by the results at C2D1 divided by the value at C1D1. […] All eligible samples were measured and no power calculation was performed. Overall survival was analyzed using Kaplan-Meier method and log-rank test. […]"}
{"smiles": "Nc1ccn([C@@H]2O[C@H](CO)[C@@H](O)C2(F)F)c(=O)n1", "note": "[gemcitabine]", "values": [{"measurement": "overall survival", "value": 6.9, "unit": "months"}]}
